This test deals with HCV replicon. In words: HCV replicon replication assay (NPT ELISA) in Huh-7 replicon-containing cells. The format is cell-based. The note with it: Hepatitis C virus, 72 h; HCV replicon in Huh-7 cells, three days incubation; read-out: EC50. The method in brief:
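Huh-7 cells carrying a bicistronic HCV replicon (HCV-IRES-neo, EMCV-IRES-driven NS3–NS5B, 3′-NTR) were seeded at 6000-7500 cells/well, grown 24 h to 60-70% confluence, then treated with graded compound concentrations. Replication was read as NPT level by capture ELISA (rabbit anti-NPTII, Eu-N1 secondary); interferon alpha served as positive control.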
`C=C[C@@H]1C[C@]1(NC(=O)[C@@H]1C[C@@H](Oc2cc(-c3ccccc3)nc3cc(OC)ccc23)CN1C(=O)[C@@H](CC(=O)N1CCCC[C@H]1c1cccnc1)C(C)(C)C)C(=O)NS(=O)(=O)C1CC1` [Compound 140, (2S,4R)-1-((S)-2-tert-butyl-4-oxo-4-((S)-2-(pyridin-3-yl)piperidin-1-yl)butanoyl)-N-((1R,2S)-1-(cyclo-propylsulfonyl-carbamoyl)-2-vinylcyclopropyl)-4-(7-methoxy-2-phenylquinolin-4-yloxy)pyrrolidine-2-carboxamide]: the EC50 was less than 1000 nM.

With `C=C[C@@H]1C[C@]1(NC(=O)[C@@H]1C[C@@H](Oc2cc(-c3ccccc3)nc3cc(OC)ccc23)CN1C(=O)[C@@H](CC(=O)N1CCCC(=O)C1)C(C)(C)C)C(=O)NS(=O)(=O)C1CC1` [Compound 141, (2S,4R)-1-((S)-2-tert-butyl-4-oxo-4-(3-oxopiperidin-1-yl)butanoyl)-N-((1R,2S)-1-(cyclo-propylsulfonyl-carbamoyl)-2-vinylcyclopropyl)-4-(7-methoxy-2-phenylquinolin-4-yloxy)pyrrolidine-2-carboxamide], the EC50 was less than 1000 nM.

Consider `C=C[C@@H]1C[C@]1(NC(=O)[C@@H]1C[C@@H](Oc2cc(-c3ccccc3)nc3cc(OC)ccc23)CN1C(=O)[C@@H](CC(=O)N1C(C(=O)O)CC2CCCCC21)C(C)(C)C)C(=O)NS(=O)(=O)C1CC1` (stereo partly drawn) [Compound 142, 1-((S)-3-((2S,4R)-2-((1R,2S)-1-(cyclo-propylsulfonyl-carbamoyl)-2-vinyl-cyclopropyl-carbamoyl)-4-(7-methoxy-2-phenylquinolin-4-yloxy)pyrrolidine-1-carbonyl)-4,4-dimethylpentano-yl)octahydro-1H-indole-2-carboxylic acid], for which the EC50 was less than 1000 nM.

As for `C=C[C@@H]1C[C@]1(NC(=O)[C@@H]1C[C@@H](Oc2nc(-c3ccccn3)nc3cc(OC)ccc23)CN1C(=O)[C@@H](CC(=O)N1CCCCC1)C(C)(C)C)C(=O)NS(=O)(=O)C1CC1` [Compound 144, (2S,4R)-1-((S)-2-tert-butyl-4-oxo-4-(piperidin-1-yl)butanoyl)-N-((1R,2S)-1-(cyclo-propylsulfonyl-carbamoyl)-2-vinyl-cyclopropyl)-4-(7-methoxy-2-(pyridin-2-yl)quinazolin-4-yloxy)pyrrolidine-2-carboxamide], the EC50 is less than 1000 nM.

For the molecule `C=C[C@@H]1C[C@]1(NC(=O)[C@@H]1C[C@@H](Oc2cc(-c3ccccc3)nc3cc(OC)ccc23)CN1C(=O)[C@@H](CC(=O)N1CCCCC1)C(C)(C)C)C(=O)NS(=O)(=O)C1(CC)CC1` [Compound 145, (2S,4R)-1-((S)-2-tert-butyl-4-oxo-4-(piperidin-1-yl)butanoyl)-N-((1R,2S)-1-(1-ethylcyclopropyl-sulfonylcarbamoyl)-2-vinylcyclopropyl)-4-(7-methoxy-2-phenylquinolin-4-yloxy)pyrrolidine-2-carboxamide], the EC50 was less than 1000 nM.

Regarding `C=C[C@@H]1C[C@]1(NC(=O)[C@@H]1C[C@@H](Oc2cc(-c3ccccc3)nc3cc(OC)ccc23)CN1C(=O)[C@@H](CC(=O)N1CCCCC1)C(C)(C)C)C(=O)NS(=O)(=O)C1(CCC)CC1` [Compound 146, (2S,4R)-1-((S)-2-tert-butyl-4-oxo-4-(piperidin-1-yl)butanoyl)-4-(7-methoxy-2-phenylquinolin-4-yloxy)-N-((1R,2S)-1-(1-propylcyclo-propylsulfonyl-carbamoyl)-2-vinyl-cyclopropyl)pyr-rolidine-2-carboxamide], the concentration giving a half-maximal response (EC50) was less than 1000 nM.

For the molecule `C=C[C@@H]1C[C@]1(NC(=O)[C@@H]1C[C@@H](Oc2cc(-c3ccccc3)nc3cc(OC)ccc23)CN1C(=O)[C@@H](CC(=O)N1CCCCC1)C(C)(C)C)C(=O)NS(=O)(=O)C1(Cc2ccccc2)CC1` [Compound 147, (2S,4R)-N-((1R,2S)-1-(1-benzylcyclo-propylsulfonyl-carbamoyl)-2-vinyl-cyclopropyl)-1-((S)-2-tert-butyl-4-oxo-4-(piperidin-1-yl)butanoyl)-4-(7-methoxy-2-phenylquinolin-4-yloxy)pyrrolidine-2-carboxamide], the EC50 is 1000 to 10000 nM.

Regarding `C=C[C@@H]1C[C@]1(NC(=O)[C@@H]1C[C@@H](Oc2cc(-c3ccccn3)c3ccc(OC)c(Cl)c3n2)CN1C(=O)[C@@H](CC(=O)N1CCCCC1)C(C)(C)C)C(=O)NS(=O)(=O)C1CC1` [Compound 148, (2S,4R)-1-((S)-2-tert-butyl-4-oxo-4-(piperidin-1-yl)butanoyl)-4-(8-chloro-7-methoxy-4-(pyridin-2-yl)quinolin-2-yloxy)-N-((1R,2S)-1-(cyclopropyl-sulfonylcarbamoyl)-2-vinyl-cyclopropyl)pyr-rolidine-2-carboxamide], the EC50 is 1000 to 10000 nM.

Consider `CC[C@@H]1C[C@]1(NC(=O)[C@@H]1C[C@@H](Oc2cc(-c3ccccc3)nc3cc(OC)ccc23)CN1C(=O)[C@@H](CC(=O)N1CCCCC1)C(C)(C)C)C(=O)NS(=O)(=O)C1CC1` [Compound 149, (2S,4R)-1-((S)-2-tert-butyl-4-oxo-4-(piperidin-1-yl)butanoyl)-N-((1R,2R)-1-(cyclo-propylsulfonyl-carbamoyl)-2-ethylcyclopropyl)-4-(7-methoxy-2-phenylquinolin-4-yloxy)pyrrolidine-2-carboxamide], for which the EC50 was less than 1000 nM.

In the case of `C=C[C@@H]1C[C@]1(NC(=O)[C@@H]1C[C@@H](Oc2cc(-c3ccccn3)c3ccc4c(c3n2)CCO4)CN1C(=O)[C@@H](CC(=O)N1CCCCC1)C(C)(C)C)C(=O)NS(=O)(=O)C1CC1` [Compound 150, (2S,4R)-1-((S)-2-tert-butyl-4-oxo-4-(piperidin-1-yl)butanoyl)-N-((1R,2S)-1-(cyclo-propylsulfonyl-carbamoyl)-2-vinylcyclopropyl)-4-(4-(pyridin-2-yl)-8,9-dihydrofuro[2,3-h]quinolin-2-yloxy)pyrrolidine-2-carboxamide], the EC50 is less than 1000 nM.

Turning to `C=CCC1(S(=O)(=O)NC(=O)[C@@]2(NC(=O)[C@@H]3C[C@@H](Oc4cc(-c5ccccc5)nc5cc(OC)ccc45)CN3C(=O)[C@@H](CC(=O)N3CCCCC3)C(C)(C)C)C[C@H]2C=C)CC1` [Compound 151], the EC50 was less than 1000 nM.

As to `C=C[C@@H]1C[C@]1(NC(=O)[C@@H]1C[C@@H](Oc2cc(-c3ccccn3)nc3c4c(ccc23)OCC4)CN1C(=O)[C@@H](CC(=O)N1CCCCC1)C(C)(C)C)C(=O)NS(=O)(=O)C1CC1` [Compound 152, (2S,4R)-1-((S)-2-tert-butyl-4-oxo-4-(piperidin-1-yl)butanoyl)-N-((1R,2S)-1-(cyclo-propylsulfonyl-carbamoyl)-2-vinylcyclopropyl)-4-(2-(pyridin-2-yl)-8,9-dihydrofuro[2,3-h]quinolin-4-yloxy)pyrrolidine-2-carboxamide], the EC50 was less than 1000 nM.

Take `C=C[C@@H]1C[C@]1(NC(=O)[C@@H]1C[C@@H](Oc2cc(-c3ccccn3)nc3c4c(ccc23)OCC4)CN1C(=O)[C@@H](CC(=O)N1CCOCC1)C(C)(C)C)C(=O)NS(=O)(=O)C1CC1` [Compound 153, (2S,4R)-1-((S)-2-tert-butyl-4-morpholino-4-oxobutanoyl)-N-((1R,2S)-1-(cyclo-propylsulfonyl-carbamoyl)-2-vinylcyclopropyl)-4-(2-(pyridin-2-yl)-8,9-dihydrofuro[2,3-h]quinolin-4-yloxy)pyrrolidine-2-carboxamide]: the EC50 was less than 1000 nM.

With `C=C[C@@H]1C[C@]1(NC(=O)[C@@H]1C[C@@H](OC(=O)N2c3ccccc3Oc3ccccc32)CN1C(=O)[C@@H](CC(=O)N1CCCCC1)C(C)(C)C)C(=O)NS(=O)(=O)C1CC1` [Compound 154, (3R,5S)-1-((S)-2-tert-butyl-4-oxo-4-(piperidin-1-yl)butanoyl)-5-((1R,2S)-1-(cyclo-propylsulfonyl-carbamoyl)-2-vinyl-cyclopropyl-carbamoyl)pyrrolidin-3-yl 10H-phenoxazine-10-carboxylate], the EC50 was 1000 to 10000 nM.

For the molecule `C=C[C@@H]1C[C@]1(NC(=O)[C@@H]1C[C@@H](OC(=O)n2c3ccc(Cl)cc3c3cc(Cl)ccc32)CN1C(=O)[C@@H](CC(=O)N1CCCCC1)C(C)(C)C)C(=O)NS(=O)(=O)C1CC1` [Compound 155, (3R,5S)-1-((S)-2-tert-butyl-4-oxo-4-(piperidin-1-yl)butanoyl)-5-((1R,2S)-1-(cyclo-propylsulfonyl-carbamoyl)-2-vinyl-cyclopropyl-carbamoyl)pyrrolidin-3-yl 3,6-dichloro-9H-carbazole-9-carboxylate], the EC50 is less than 1000 nM.

On to `C=C[C@@H]1C[C@]1(NC(=O)[C@@H]1C[C@@H](Oc2cc(-c3ccccc3)nc3cc(OC)ccc23)CN1C(=O)[C@@H](CC(=O)N1CCCCC1)C(C)(C)C)C(=O)NS(=O)(=O)C1(Cl)CC1` [Compound 158, (2S,4R)-1-((S)-2-tert-butyl-4-oxo-4-(piperidin-1-yl)butanoyl)-N-((1R,2S)-1-(1-chlorocyclopropyl-sulfonyl-carbamoyl)-2-vinylcyclopropyl)-4-(7-methoxy-2-phenylquinolin-4-yloxy)pyrrolidine-2-carboxamide], for which the EC50 is less than 1000 nM.

As to `C=CC1C[C@]1(NC(=O)[C@@H]1C[C@@H](Oc2cc(-c3ccccc3)nc3cc(OC)ccc23)CN1C(=O)[C@@H](CC(=O)N1CCCC(C(=O)N(CC)CC)C1)C(C)(C)C)C(=O)NS(=O)(=O)C1CC1` (stereo partly drawn) [Compound 159, 1-((S)-3-((2S,4R)-2-((1R,2S)-1-(cyclo-propylsulfonyl-carbamoyl)-2-vinyl-cyclopropyl-carbamoyl)-4-(7-methoxy-2-phenylquinolin-4-yloxy)pyrrolidine-1-carbonyl)-4,4-dimethylpentanoyl)-N,N-diethylpiper-idine-3-carboxamide], the EC50 is less than 1000 nM.

For `C=CC1C[C@]1(NC(=O)[C@@H]1C[C@@H](Oc2cc(-c3ccccc3)nc3cc(OC)ccc23)CN1C(=O)[C@@H](CC(=O)N1CCCC(C(=O)OCC)C1)C(C)(C)C)C(=O)NS(=O)(=O)C1CC1` (stereo partly drawn) [Compound 160, ethyl 1-((S)-3-((2S,4R)-2-((1R,2S)-1-(cyclopropyl-sulfonylcarbamoyl)-2-vinylcyclopropyl-carbamoyl)-4-(7-methoxy-2-phenylquinolin-4-yloxy)pyrrolidine-1-carbonyl)-4,4-dime-thylpentanoyl)piper-idine-3-carboxylate], the half-maximal effective concentration (EC50) is less than 1000 nM.

(Values after patent US9133115B2 (ACHILLION PHARMACEUTICALS, INC., priority 2008, dated 2015).)
